Key:
[1] = target: Kelch domain of human KEAP1 (321-624 aa) (Homo sapiens (Human), UniProt Q14145); test: KEAP1 KELCH ThermoFluor binding assay; details: KEAP Kelch […], 1,8-ANS, pH 7.0, average of results obtained, read-out: Tf Kd;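 note: Ligand-induced melting temperature shift of E. coli-expressed KEAP1 Kelch protein, Kd estimated from concentration-response curves of ΔTm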
[2] = tested on: Glo-Response ARE-luc2P HEK293 cell line; test: ARE luciferase reporter cell-based assay; details: Homo sapiens, HEK293, 24 h, average of results obtained;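 note: luciferase signal tracks Nrf2 activation of the ARE once compounds disrupt KEAP1-Nrf2 binding, read with One-Glo reagent, DMSO serving as low control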
Protocol: The ARE assay utilizes a luciferase reporter cell line where the signal is proportional to NrF2 activation of the ARE. The cell line is commercially available from Promega and was prepared by stably transfecting HEK293 cells with a vector (pGL4.11) which contains the ARE response element upstream of a minimal promoter. The promoter drives expression of luc2 firefly luciferase gene. Upon disruption of KEAP1-Nrf2 binding by compound, Nrf2 translocates into the nucleus where it binds to the ARE and activates transcription of luciferase.
The materials used in this ARE assay are as follows: Glo-Response ARE-luc2P HEK293 cell line and One-Glo Luciferase Assay System were purchased from Promega (Madison, Wis.). Dulbecco's Modified Eagle medium ((DMEM), low glucose, GlutaMAX, pyruvate), fetal bovine serum (certified, heat inactivated), hygromycin B, Dulbecco's phosphate-buffered saline were purchased from Life Technologies (Grand Island, N.Y.). Penicillin, streptomycin solution (100×) and 0.05% trypsin-EDTA were purchased from Corning (Manassas, Va.). DMSO was purchased from EMD Millipore.
The ARE assay protocol is as follows: cells were maintained in growth medium (DMEM+10% FBS, 200 μg/mL hygromycin B, p-s) between 20-90% confluency by splitting twice per week. One day before the assay, cells were trypsinized, counted to determine viable cell count, and re-suspended in assay medium (DMEM+10% FBS, p-s) at 250,000 cells/mL. […] 100% DMSO was used as the low control. A 11-point dose series of the control compound was included on every plate. Compounds were spotted to an intermediate plate (Greiner #781280 V-bottom 384 well plate) using the Echo acoustic dispenser (Labscyte San Jose, Calif.). Spot size was 240 nL.
On the day of the assay, 60 mL per well of assay medium was added to the pre-spotted plate to make 2× compound stocks using the Combi (Thermo Waltham, Mass.). Compound and medium were mixed on the Janus and 20 mL of 2×compound stock was added to the cell plate which already contained 20 mL of assay medium from cell plating. […] The plates were returned to the tissue culture incubator for 24 hours.
The next day, luciferase activity was measured according to the manufacturer's protocol for One-Glo luciferase reagent. The plates were removed from the incubator and allowed to equilibrate to room temperature for 30 min. Forty microliters of One-Glo reagent (equilibrated to room temperature) was added per well using the Combi. The plates were mixed on an orbital shaker for 3 min. Luminescence was read on the BMG Pherastar multiplate reader (Cary, N.C.) using the luminescence protocol (1 sec interval).
The dose-response data were analyzed in Genedata Screener using 4PL nonlinear regression model. Raw luminescence counts as well as normalized values were used for data analysis.

Sequence of Kelch domain of human KEAP1 (321-624 aa) (Q14145 321-624): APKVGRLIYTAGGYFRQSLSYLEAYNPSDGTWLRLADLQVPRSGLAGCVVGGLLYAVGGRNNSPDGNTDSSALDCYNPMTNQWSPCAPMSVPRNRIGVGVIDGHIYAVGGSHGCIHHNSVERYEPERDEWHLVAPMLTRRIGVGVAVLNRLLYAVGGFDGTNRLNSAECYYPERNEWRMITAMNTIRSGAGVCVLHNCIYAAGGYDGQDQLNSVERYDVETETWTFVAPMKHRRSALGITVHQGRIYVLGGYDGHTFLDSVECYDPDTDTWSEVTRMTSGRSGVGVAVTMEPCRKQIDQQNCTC

Row | Structure (SMILES) | Kd [1] | EC50 [2]
1 | Cc1ccc([C@H](c2ccn3c(C(F)(F)F)nnc3c2C)C(C)(C)C(=O)O)cc1CN1CC2(CC2)Oc2nc(N[C@@H](C)CN3CCCCC3)c(C)cc2S1(=O)=O (single isomer, unassigned) [Example 380, (*R)-2,2-Dimethyl-3-(4-methyl-3-((8′-methyl-1′,1′-dioxido-7′-(((S)-1-piperidin-1-yl)propan-2-yl)amino)spiro[cyclopropane-1,4′-pyrido [2,3-b][1,4,5]oxathiazepin]-2′(3′H)-yl)methyl)phenyl)-3-(8-methyl-3-(trifluoromethyl)-[1,2,4]triazolo[4,3-a]pyridine-7-yl)propanoic Acid] | < 1 nM | 14.1 nM
2 | Cc1ccc([C@@H](c2ccn3c(C(F)(F)F)nnc3c2C)C(C)(C)C(=O)O)cc1CN1C[C@]2(CCOC2)Oc2ncccc2S1(=O)=O (single isomer, unassigned) [Example 381, (*S)-3-(3-(((*S)-1′,1′-Dioxido-4,5-dihydro-2H-spiro[furan-3,4′-pyrido[2,3-b][1,4,5]oxathiazepin]-2′(3′H)-yl)methyl)-4-methylphenyl)-2,2-dimethyl-3-(8-methyl-3-(trifluoromethyl)-[1,2,4]triazolo[4,3-a]pyridin-7-yl)propanoic Acid] | 2820 nM | 427 nM
3 | Cc1ccc([C@@H](c2ccn3c(C(F)(F)F)nnc3c2C)C(C)(C)C(=O)O)cc1CN1C[C@@]2(CCOC2)Oc2ncccc2S1(=O)=O (single isomer, unassigned) [Example 382, (*S)-3-(3-(((*R)-1′,1′-Dioxido-4,5-dihydro-2H-spiro[furan-3,4′-pyrido[2,3-b][1,4,5]oxathiazepin]-2′(3′H)-yl)methyl)-4-methylphenyl)-2,2-dimethyl-3-(8-methyl-3-(trifluoromethyl)-[1,2,4]triazolo[4,3-a]pyridin-7-yl)propanoic Acid] | < 1 nM | 1.8 nM
4 | Cc1cnc2c(c1)S(=O)(=O)N(Cc1cc([C@@H](c3ccn4c(C(F)(F)F)nnc4c3C)C(C)(C)C(=O)O)ccc1C)C[C@]1(CCOC1)O2 (single isomer, unassigned) [Example 383, (*S)-2,2-Dimethyl-3-(4-methyl-3-(((*S)-8′-methyl-1′,1′-dioxido-4,5-dihydro-2H-spiro[furan-3,4′-pyrido[2,3-b][1,4,5]oxathiazepin]-2′(3′H)-yl)methyl)phenyl)-3-(8-methyl-3-(trifluoromethyl)-[1,2,4]triazolo[4,3-a]pyridin-7-yl)propanoic Acid] | < 1 nM | 1.2 nM
5 | Cc1cnc2c(c1)S(=O)(=O)N(Cc1cc([C@@H](c3ccn4c(C(F)(F)F)nnc4c3C)C(C)(C)C(=O)O)ccc1C)C[C@@]1(CCOC1)O2 (single isomer, unassigned) [Example 384, (*S)-2,2-Dimethyl-3-(4-methyl-3-(((*R)-8′-methyl-1′,1′-dioxido-4,5-dihydro-2H-spiro[furan-3,4′-pyrido[2,3-b][1,4,5]oxathiazepin]-2′(3′H)-yl)methyl)phenyl)-3-(8-methyl-3-(trifluoromethyl)-[1,2,4]triazolo[4,3-a]pyridin-7-yl)propanoic Acid] | 246 nM | 150 nM
6 | Cc1ccc([C@H](c2ccn3c(C(F)(F)F)nnc3c2C)C(C)(C)C(=O)O)cc1CN1C[C@]2(CCOC2)Oc2ncccc2S1(=O)=O (single isomer, unassigned) [Example 385, (*R)-3-(3-(((*S)-1′,1′-Dioxido-4,5-dihydro-2H-spiro[furan-3,4′-pyrido[2,3-b][1,4,5]oxathiazepin]-2′(3′H)-yl)methyl)-4-methylphenyl)-2,2-dimethyl-3-(8-methyl-3-(trifluoromethyl)-[1,2,4]triazolo[4,3-a]pyridin-7-yl)propanoic Acid] | < 1 nM | 1.8 nM
7 | Cc1ccc([C@H](c2ccn3c(C(F)(F)F)nnc3c2C)C(C)(C)C(=O)O)cc1CN1C[C@@]2(CCOC2)Oc2ncccc2S1(=O)=O (single isomer, unassigned) [Example 386, (*R)-3-(3-(((*R)-1′,1′-Dioxido-4,5-dihydro-2H-spiro[furan-3,4′-pyrido[2,3-b][1,4,5]oxathiazepin]-2′(3′H)-yl)methyl)-4-methylphenyl)-2,2-dimethyl-3-(8-methyl-3-(trifluoromethyl)-[1,2,4]triazolo[4,3-a]pyridin-7-yl)propanoic Acid] | 1060 nM | 343 nM
8 | Cc1cnc2c(c1)S(=O)(=O)N(Cc1cc([C@H](c3ccn4c(C(F)(F)F)nnc4c3C)C(C)(C)C(=O)O)ccc1C)C[C@]1(CCOC1)O2 (single isomer, unassigned) [Example 387, (*R)-2,2-Dimethyl-3-(4-methyl-3-(((*S)-8′-methyl-1′,1′-dioxido-4,5-dihydro-2H-spiro[furan-3,4′-pyrido[2,3-b][1,4,5]oxathiazepin]-2′(3′H)-yl)methyl)phenyl)-3-(8-methyl-3-(trifluoromethyl)-[1,2,4]triazolo[4,3-a]pyridin-7-yl)propanoic Acid] | 1230 nM | 270 nM
9 | Cc1cnc2c(c1)S(=O)(=O)N(Cc1cc([C@H](c3ccn4c(C(F)(F)F)nnc4c3C)C(C)(C)C(=O)O)ccc1C)C[C@@]1(CCOC1)O2 (single isomer, unassigned) [Example 388, (*R)-2,2-Dimethyl-3-(4-methyl-3-(((*R)-8′-methyl-1′,1′-dioxido-4,5-dihydro-2H-spiro[furan-3,4′-pyrido[2,3-b][1,4,5]oxathiazepin]-2′(3′H)-yl)methyl)phenyl)-3-(8-methyl-3-(trifluoromethyl)-[1,2,4]triazolo[4,3-a]pyridin-7-yl)propanoic Acid] | < 1 nM | 1 nM
10 | Cc1ccc([C@H](CC(=O)O)c2ccn3c(C(F)(F)F)nnc3c2C)cc1CN1C[C@H]2CCCN2c2ncccc2S1(=O)=O (single isomer, unassigned) [Example 389, (*S)-3-(3-(((R)-5,5-Dioxido-7a,8,9,10-tetrahydropyrido[2,3-f]pyrrolo[2,1-d][1,2,5]thiadiazepin-6(7H)-yl)methyl)-4-methylphenyl)-3-(8-methyl-3-(trifluoromethyl)-[1,2,4]triazolo[4,3-a]pyridin-7-yl)propanoic Acid] | < 1 nM | 12.1 nM
11 | Cc1ccc([C@@H](CC(=O)O)c2ccn3c(C(F)(F)F)nnc3c2C)cc1CN1C[C@H]2CCCN2c2ncccc2S1(=O)=O (single isomer, unassigned) [Example 390, (*R)-3-(3-(((R)-5,5-Dioxido-7a,8,9,10-tetrahydropyrido[2,3-f]pyrrolo[2,1-d][1,2,5]thiadiazepin-6(7H)-yl)methyl)-4-methylphenyl)-3-(8-methyl-3-(trifluoromethyl)-[1,2,4]triazolo[4,3-a]pyridin-7-yl)propanoic Acid] | < 1 nM | 90.9 nM
12 | Cc1cnc2c(c1)S(=O)(=O)N(Cc1cc([C@@H](c3ccn4c(C5CC5)nnc4c3C)C(C)(C)C(=O)O)ccc1C)CC1(CC1)O2 (single isomer, unassigned) [Example 392, (*S)-3-(3-Cyclopropyl-8-methyl-[1,2,4]triazolo[4,3-a]pyridin-7-yl)-2,2-dimethyl-3-(4-methyl-3-((8′-methyl-1′,1′-dioxidospiro[cyclopropane-1,4′-pyrido[2,3-b][1,4,5]oxathiazepin]-2′(3′H)-yl)methyl)phenyl)propanoic Acid] | < 1 nM | 11.3 nM

Reference: patent publication US10947252B2, “Inhibitors of KEAP1-Nrf2 protein-protein interaction” (Janssen Pharmaceutica NV, priority 2018, dated 2021)
